Measured values taken from patent publication US4593043A, “Mercapto acyl-carnitines and pharmaceutical compositions containing same” (Sigma-Tau Industrie Farmaceutiche Riunite S.p.A., priority 1981, dated 1986).
Counter-ions that a name gives are not always drawn.

Experiments:
[1] = Acute toxicity in the mouse, Weil method; settings: in vivo, ip
From the text: The acute toxicity of the compounds of general formula (I) has been studied in the mouse with the Weil method (Weil C. S., Biometer. J. 8, 249, 1952).
The LD50 values of some compounds illustrated in Table I, indicate that the compounds are remarkably well tolerated. PG,20
general formula (I). Weil's method (N = 5, K = 4) Cl = hydro-

[2] = system: damage provoked by irradiation in rats; test: Protection against X-ray exposure (survival after irradiation); assay type: in vivo, Albino Wister rats; settings: 30-40 mg Kg^-1 1 hour before irradiation and 15 mg Kg^-1 per day in the subsequent 20 days
Description: The effect of the compounds of formula (I) towards the damages provoked by X-ray exposure was studied.
The experiment animals, Albino Wister rats, treated with the compounds under examination (30-40 mg Kg^-1 1 hour before irradiation and 15 mg Kg^-1 per day in the subsequent 20 days) were irradiated and checked over a time period to detect the onset of toxic effects and the time of survival with respect to the control group. […]

[3] = system: burned cutaneous area of the back; test: Cutaneous regeneration from burns; assay type: in vivo; settings: rabbits, oral, 20 mg Kg^-1 once a day for seven days; for Percentage of regenerated tissue, 4th day: 4th day from treatment; for Percentage of regenerated tissue, 8th day: 8th day from treatment
Description: The ability of the compounds of formula (I) to speed up the cutaneous regeneration from burns has been tested in rabbits.
A 4 cm^2 cutaneous area of the average-top zone of the test animal back was burned.
The compounds were orally administered in aqueous solution at the dose of 20 mg Kg^-1 once a day for seven days. The area of cutaneous regeneration, i.e. the area of the newly formed tissue was then measured (Table III).

bronchial secretion = test: Expectorant activity (bronchial secretion), method of Perry et al.; assay type: in vivo, male rabbits; settings: rabbits; for Percentage variations of bronchial secretion, 1 hour: 1 hour after administration; for Percentage variations of bronchial secretion, 2 hours: 2 hours after administration; for Percentage variations of bronchial secretion, 4 hours: 4 hours after administration
Description: The tests were carried out on male rabbits, weighing 2-3 Kg, anesthetized with ethyl urethane, by following the method disclosed by Perry et al. (J. Pharm. Exp. Ther. 73, 65, 1941).
Each cannula was connected to a feeding device which delivered a steady flow-rate of pre-heated air (36°-38° C.) at constant humidity (80%). At the lower end of each cannula, a graduated cylinder was fitted, wherein the bronchial secretion was collected. All of the animals breathed spontaneously and consequently they self-regulated the air intake suitable for normal respiration. […] Each dose of drug was administered to 5 animals. The control animals (8) were given water only. The amount of secretion was determined after 1, 2 and 4 hours from administration.

[4] = Mucolytic activity in vitro on human sputum (thromboelastograph, method of Morandini et al.); settings: for Percentage drop ± s.e. of the tracing versus maximum peak (mucolytic activity index), dilution 1/30: 1 ml of a 10% solution at dilution 1/30; for Percentage drop ± s.e. of the tracing versus maximum peak (mucolytic activity index), dilution 1/60: 1 ml of a 10% solution at dilution 1/60
Description: The tests were carried out in vitro by using the method disclosed by Morandini et al. (Lotta contro la tubercolosi 47, n. 4, 1977). A thromboelastograph was used to follow the variations induced by the compounds of general formula (I) and acetylcisteine on the rheological properties of human sputum.

[5] = mice, ep, Weil's method (N = 5, K = 4)

Compound | LD50 [1] | Percentage of surviving animals [2] | Percentage of surviving animals, day 10 from irradiation [2] | Percentage of surviving animals, day 20 from irradiation [2] | Percentage of regenerated tissue, 4th day [3] | Percentage of regenerated tissue, 8th day [3] | Percentage variations of bronchial secretion, 1 hour (bronchial secretion; 15 mg oral) | Percentage variations of bronchial secretion, 2 hours (bronchial secretion; 15 mg oral) | Percentage variations of bronchial secretion, 4 hours (bronchial secretion; 15 mg oral) | Percentage drop ± s.e. of the tracing versus maximum peak (mucolytic activity index), dilution 1/30 [4] | Percentage drop ± s.e. of the tracing versus maximum peak (mucolytic activity index), dilution 1/60 [4] | Percentage variations of bronchial secretion, 1 hour (bronchial secretion; 10 mg oral) | Percentage variations of bronchial secretion, 2 hours (bronchial secretion; 10 mg oral) | Percentage variations of bronchial secretion, 4 hours (bronchial secretion; 10 mg oral) | LD50 [1, 5] | Percentage variations of bronchial secretion, 1 hour (bronchial secretion; 20 mg oral) | Percentage variations of bronchial secretion, 2 hours (bronchial secretion; 20 mg oral) | Percentage variations of bronchial secretion, 4 hours (bronchial secretion; 20 mg oral)
CCC(S)C(=O)OC(CC(=O)O)C[N+](C)(C)C (stereo not shown) [2-mercapto butyryl carnitine Cl] | 294 mg/kg | 70% | 100% | 85% | 35% | 95% | +0.5% | +0.9% | +2.3% | 85.3 ± 4% | 38.4 ± 5% |  |  |  |  |  |  | 
CC(S)C(=O)OC(CC(=O)O)C[N+](C)(C)C (stereo not shown) [2-mercapto propionyl carnitine Cl] | 294 mg/kg | 45% | 80% | 70% | 30% | 65% |  |  |  | 85.4 ± 6% | 46.5 ± 6% | +0.1% | +0.2% | +2.0% |  |  |  | 
C[N+](C)(C)CC(CC(=O)O)OC(=O)CCS (stereo not shown) [3-mercapto propionyl carnitine Cl, 3-mercapto propionyl carnitine hydrochloride] |  | 60% | 90% | 80% | 40% | 80% | -0.2% | +0.4% | +1.1% |  |  |  |  |  | 312 mg/kg |  |  | 
C[N+](C)(C)CC(CC(=O)O)OC(=O)CCCS (stereo not shown) [4-mercapto butyryl carnitine Cl, 4-mercapto butyryl carnitine hydrochloride] |  | 55% | 100% | 80% | 25% | 70% |  |  |  |  |  |  |  |  | 303 mg/kg | +0.4% | +0.6% | +1.2%
C[N+](C)(C)CC(CC(=O)O)OC(=O)CCCCS (stereo not shown) [5-mercapto valeryl carnitine Cl] | 281 mg/kg | 50% | 95% | 70% | 20% | 60% | +0.6% | -0.3% | +1.4% | 90.3 ± 6% | 48.3 ± 6% |  |  |  |  |  |  | 
CC(=O)N[C@@H](CS)C(=O)O [Acetylcysteine, reference compound] |  |  |  |  |  |  |  |  |  | 75.7 ± 7% | 22.3 ± 4% |  |  |  |  |  |  | 
C[N+](C)(C)CC(CC(=O)O)OC(=O)CS (stereo not shown) [mercapto acetyl carnitine Cl] | 308 mg/kg | 30% | 85% | 45% | 35% | 70% |  |  |  | 78.3 ± 5% | 45.2 ± 4% | +0.3% | +0.9% | +2.4% |  |  |  | 
